# Test results from US20100004293A1, “CRYSTALLINE FORMS OF ARYL-SUBSTITUTED PYRAZOLE-AMIDE COMPOUNDS” (Bristol-Myers Squibb Company, priority 2006, published 2010).
# Key:
# [1] = slurry conversion studies in butanol/water mixtures (N-2/H-1); format: physicochemical; conditions: N-2 versus H-1, butanol/water slurry
# Description: (§1) The available data establish the following RH range for equilibrium N-2/H-1 conversion: 25%<RHeq<=30%. Wetcakes subjected to RH<30% are subject to dehydration, kinetic factors notwithstanding.
# [2] = aqueous solubility of crystalline forms; format: physicochemical
# [3] = solid-state storage stability (temperature/humidity, HIL, filler excipients); format: physicochemical
# Description: (§2) Based on the equilibrium RH studies, N-2 could undergo hydrate formation during handling, formulation or storage.
# moisture sorption study = format: physicochemical
# Description: as §1
# [4] = dehydration/heating of monohydrate H-1; format: physicochemical
# drying studies for H-1 = format: physicochemical
# Description: as §2
# [5] = solvate stability by single crystal structure determination at different temperatures; format: physicochemical; conditions: solvent site fully occupied at −50° C., still 50% occupied at +82° C.
# Description: In addition to the monohydrate, Compound I also forms solvates with a large number of organic solvents. The type 3 family of solvates (represented by an EtOAc solvate, form EA.5-3; a PrOAc solvate, form PA.5-3; a MeCN solvate, form AN-3; and a CH2CL2 solvate, DC-3) have a large hydrophobic clathrate channel (V˜215 Å^3) parallel to the crystallographic a repeat. […] The single crystal structures of an ethanol solvate (E-8), an isopropanol solvate (IPA-10), a second acetonitrile form (AN-11) and three mixed solvates (SA-9, SB-12, SC-13) with THF and water have been determined.
# [6] = slurry conversion studies at 25 and 50° C. and melting data (relative polymorph stability); format: physicochemical
# [7] = monkey PK crossover study; format: in vivo; conditions: monkey PK crossover study (n=4)
# Description: as §2
# [8] = exposed to HIL for at least 1 week
# [9] = stored at 50° C./75% RH open and closed for at least 4 weeks
smiles,measurement,setting,value
"Cc1ccc(C(=O)NC2CC2)cc1NC(=O)c1cnn(-c2ncccc2C(F)(F)F)c1C [Form H-1, N-(5-(cyclopropylcarbamoyl)-2-methylphenyl)-5-methyl-1-(3-(trifluoromethyl)pyridin-2-yl)-1H-pyrazole-4-carboxamide]",RH at which the form is the more stable form,[1],≥ 30%
same,aqueous solubility,[2],7 µg/mL
same,chemical and physical stability in the solid-state,[3]; [8],chemically and physically stable
same,chemical and physical stability in the solid-state,[3]; [9],chemically and physically stable
same,hygroscopicity,moisture sorption study; about 35 to about 75% RH,essentially non-hygroscopic
same,"water sorption, descending RH run",moisture sorption study; at 25% RH,partially dehydrated
same,form conversion upon heating,"[4]; 90° C., 30 m, to neat form T1H1 (N-7)",converts topotactically
same,stability under reduced humidity,[4]; reduced humidity,unstable
same,form conversion on drying,drying studies for H-1; dryer at 20-30% RH,no conversion was observed
same,form conversion on drying,drying studies for H-1; dryer maintained at 40° C. at RH 2.4-3.4%,converted to N-7
Cc1ccc(C(=O)NC2CC2)cc1NC(=O)c1cnn(-c2ncccc2C(F)(F)F)c1C [Form M-4],stability of solvate,[5],relatively stable
"Cc1ccc(C(=O)NC2CC2)cc1NC(=O)c1cnn(-c2ncccc2C(F)(F)F)c1C [Form N-2, N-(5-(cyclopropylcarbamoyl)-2-methylphenyl)-5-methyl-1-(3-(trifluoromethyl)pyridin-2-yl)-1H-pyrazole-4-carboxamide]",RH at which the form is the more stable form,[1],≤ 16%
same,aqueous solubility,[2],≥ 28 µg/mL
same,solubility ratio (N-2 to H-1),"[2]; aqueous solubility, N-2 relative to H-1",~4 ×
same,chemical and physical stability in the solid-state,[3]; [8],chemically and physically stable
same,form conversion (hydrate formation) on storage,"[3]; stored 3 weeks or more at elevated temperature and humidity (e.g., 50° C./75% RH), in the presence of common filler excipients",no conversion
same,chemical and physical stability in the solid-state,[3]; [9],chemically and physically stable
same,relative stability among polymorphic (neat) forms,[6]; at 25° C. and 50° C.,most stable polymorphic (neat) form
same,exposure for the N-2 relative to H-1,[7],~2 fold
same,hygroscopicity,moisture sorption study; about 25 to about 75% RH at 25° C.,non-hygroscopic
"Cc1ccc(C(=O)NC2CC2)cc1NC(=O)c1cnn(-c2ncccc2C(F)(F)F)c1C [Form N-5, N-(5-(cyclopropylcarbamoyl)-2-methylphenyl)-5-methyl-1-(3-(trifluoromethyl)pyridin-2-yl)-1H-pyrazole-4-carboxamide]",relative stability N-5:N-6 (monotropes),[6]; N-5 versus N-6,more stable
"Cc1ccc(C(=O)NC2CC2)cc1NC(=O)c1cnn(-c2ncccc2C(F)(F)F)c1C [Form N-7, N-(5-(cyclopropylcarbamoyl)-2-methylphenyl)-5-methyl-1-(3-(trifluoromethyl)pyridin-2-yl)-1H-pyrazole-4-carboxamide]","relative stability of N-7 (monotropic with N-2, N-5 and N-6)","[6]; versus N-2, N-5 and N-6",less stable at all temperatures below 192 °C
Cc1ccc(C(=O)NC2CC2)cc1NC(=O)c1cnn(-c2ncccc2C(F)(F)F)c1C [dehydrated H-1],"water sorption, ascending RH run",moisture sorption study; between 75 and 95% RH,partially rehydrates to H-1
